Read-outs that look alike come from different tables or passages of the source.
Assays:
[1] = system: FM3A murine breast tumour cells; conditions: literature (10); cited from earlier work
[2] = system: MCF7 human breast carcinoma cells; conditions: literature (9), cited from earlier work
MCF-7 cells = experiment: Detection of autophagy in tamoxifen treated MCF-7 cells (MDC, LC3-GFP, TEM); assay type: cell-based, human
Text: Assays for autophagy and cell viability: We used flow cytometry based methods and microscopy to analyze autophagy levels. Cells were stained with MDC and LT-G and first analyzed manually by fluorescence microscopy and then by flow cytometry using a BD® flow cytometer (FACSVANTAGE™ SE, BD, TFL FACS Facility, BCCRC). […] To confirm that these two populations represent a functional difference in autophagy levels, RNA and protein from these FACS sorted cell were subjected to QRT-PCR for the MAP1LC3b gene, a commonly accepted marker for autophagy (16). In addition, the two populations were analyzed by Transmission Electron Microscopy (TEM) for the presence of autophagosomes (9).
FIG. 8. […] B. MCF-7 cells treated with 10^-6 M tamoxifen. In panels A, B, & D, cells are stained with the autolysosomal marker, MDC, detected as punctate staining (e.g. arrows in B).
In panels C and D, autophagy is detected by LC3-GFP localization. C. Punctate GFP-LC3 in transient transfected MCF7 cells treated with TAM. […] In panel E-H, TEM analyses indicate that autolysosomes are abundant in tamoxifen treated MCF7 cell sorted MDC (+) populations but not untreated MCF7 cells. Representative image of an untreated MCF7 cell is shown in (E) with a magnified view of the same cell in (G). Panels (F) and (H) show a cell treated with 5 uM tamoxifen (72 hrs).

CC/C(=C(\c1ccccc1)c1ccc(OCCN(C)C)cc1)c1ccccc1 [Tamoxifen]
Induction of autophagy [1]: induce autophagy | Induction of autophagy ([2]; listed as tamoxifen): undergo autophagy | Induction of autophagy [2]: induce autophagy | Autolysosomes by TEM (MCF-7 cells; MCF7 cell treated with 5 uM tamoxifen (72 hrs), versus untreated): Numerous autolysosomes | Induction of autophagy (MDC punctate staining, LC3-GFP localization) (MCF-7 cells; MCF-7 cells, 10^-6 M tamoxifen): induces autophagy
